# According to patent publication US5098933A, “Pharmaceutically useful Michael addition products of unsaturated aldehydes and ketones and ascorbic acid” (Theracel Corporation, priority 1990, dated 1992):
# Several values for one entry are separate records, joined by “and”; a condition that tells them apart may be missing. Identical values can stand only once. Entries after “also recorded” stand apart in the source; their conditions may differ.
# Assays:
# CD-1 mice = test: Immunotoxicity--Multi-dose: survival, weight, organ and histopathology assessment; assay type: in vivo; conditions: for Organ weight, Kidney / Organ weight, Liver / Organ weight, Lung / Organ weight, Spleen / Organ weight, Tail: individual animals A, B
# Method: (§1) The immunotoxicological potential of KCPBL was evaluated in this experiment in which the study drug was administered to CD-1 mice for fourteen days (100 or 1000 mg/kg/day), either perorally (by gavage) or intravenously (tail vein). On the fifteenth day, the mice were weighed and sacrificed. The spleen, lungs, liver, kidneys and thymus were removed from each animal, fixed in formalin and histopathologically evaluated. In addition, a differential white blood cell count was obtained for a peripheral blood sample as well as the following tests performed: spleen cell counts (performed with Coulter Counter) and lymphocyte stimulation assays using PHA, CON-A and PWM techniques.
# CD-1 mice were obtained from Charles Rivers Laboratories. The mice were quarantined for at least one week in a separate holding room prior to use in this experiment. Five mice per treatment were used. The mice were housed in a Thoren positive pressure laminar flow Maximizer caging system with each case controlled for water and air flow. The mouse rooms are maintained on a 12-hour light/dark cycle at a constant temperature of 76° F.
# KCPBL containing approximately 50:50 ratio of the two epimers as determined by HPLC and optical rotation analysis was used in this study. An amount of drug was calculated to deliver the equivalent of 100 or 1000 mg/kg, either by the oral or intravenous route. The average weight of the mice was 29.5 grams.
# (§2) […] Mice were administered KCPBL daily for a total of fourteen days via the oral (0.2 ml of a 147.5 mg/ml solution or a 29.5 mg/ml solution by gavage) and intravenous route (0.2 ml of 147.5 mg/ml solution or a 29.5 mg/ml solution by tail vein) to achieve a dose of 100 or 1000 mg/kg, respectively. The test dose was prepared fresh daily and dissolved in sterile non-pyrogenic saline. On the fifteenth day the mice were weighed, sacrificed, and the spleens, lungs, livers, kidneys and thymuses removed. These organs were weighed and, except for the spleens, the formalin-fixed organs were analyzed by a veterinary pathologist. Only two randomly-selected sets of animal organs per treatment group were histopathologically evaluated since the remaining three animals were used to isolate splenic lymphocytes for use in cellular immunoassays.
# (§3) A leukocyte differential was obtained on peripheral blood samples and spleen cell counts (performed with Coulter Counter), and an IL-2 induction assessment as well as standard lymphocyte stimulation assays using PHA, CON-A and PWM conducted.
# Survival was assessed through the fifteenth day. All the surviving mice were sacrificed on the fifteenth day, predetermined organs removed, place in formalin, and subjected to for histopathologic examination by a veterinary pathologist.
# (§4) The individual spleens of three mice from control and test groups were processed to isolate lymphocytes and the protocols for lymphocyte blastogenesis, IL-2 induction and assay were performed. The remaining two mice in each group were sacrificed and their lungs, liver, kidney, and spleen were fixed in formalin and sent to AnMed Biosafe for histopathologic examination.
# splenic lymphocytes [1] = test: Immunotoxicity--Multi-dose: lymphocyte blastogenesis / stimulation (PHA, Con A, PWM); assay type: in vivo, mice
# Method: as §1, §2, §3, §4
# splenic lymphocytes [2] = test: Immunomodulation panel: lymphocyte blastogenesis (Con-A, PHA, PWM); assay type: in vivo, C57BL/6J mice; conditions: 100 mg/kg i.p.
# [3] = group 2 (1000 mg/kg P.O.), 1000 mg/kg
# [4] = group 3 (1000 mg/kg IV), 1000 mg/kg
# [5] = group 5 (100 mg/kg IV), 100 mg/kg
smiles,measurement,setting,value
O=C1CCC(C2(O)C(=O)OC3C(O)COC32O)C1 (stereo not shown) [KCPBL],PMV:Mono ratio,CD-1 mice; 100 mg/kg IV (group 5),10/90
same,PMV:Mono ratio,CD-1 mice; 1000 mg/kg IV (group 3),11/89
same,PMV:Mono ratio,CD-1 mice; 1000 mg/kg P.O. (group 2),21/79
same,generalized toxicity / immunotoxic effect,"CD-1 mice; 100 or 1000 mg/kg, either route",None of the mice showed evidence of generalized toxicity; also recorded: no evidence of a immunotoxic effect
same,weight loss,"CD-1 mice; 100 or 1000 mg/kg/day, 14 days, i.v. or p.o.",No clinically significant weight loss
same,survival / deaths,CD-1 mice; 14 days dosing,"Except for treatment group 4 (KCPBL 100 mg/kg perorally), all animals survived to the conclusion of the trial; also recorded: In group 4, two animals were found dead on day 4 and another animal dead on day 10"
same,"Organ weight, Kidney",CD-1 mice; [3],271.7 mg and 269.8 mg
same,"Organ weight, Liver",CD-1 mice; [3],1710 mg and 1780 mg
same,"Organ weight, Lung",CD-1 mice; [3],192.5 mg and 175.8 mg
same,"Organ weight, Spleen",CD-1 mice; [3],102.6 mg and 103.7 mg
same,"Organ weight, Tail",CD-1 mice; [3],236.2 mg and 229.1 mg
same,"Organ weight, Kidney",CD-1 mice; [4],287.1 mg and 225.3 mg
same,"Organ weight, Liver",CD-1 mice; [4],1760 mg and 1310 mg
same,"Organ weight, Lung",CD-1 mice; [4],209.1 mg and 177.1 mg
same,"Organ weight, Spleen",CD-1 mice; [4],110.8 mg and 75.6 mg
same,"Organ weight, Tail",CD-1 mice; [4],235.8 mg and 239.6 mg
same,"Organ weight, Kidney",CD-1 mice; [5],235.4 mg and 377.9 mg
same,"Organ weight, Liver",CD-1 mice; [5],1570 mg and 2350 mg
same,"Organ weight, Lung",CD-1 mice; [5],177.9 mg and 192.3 mg
same,"Organ weight, Spleen",CD-1 mice; [5],88.7 mg and 104.2 mg
same,"Organ weight, Tail",CD-1 mice; [5],215.1 mg and 248.2 mg
same,"Histopathology (lung, liver, kidney, spleen, thymus, tail)","CD-1 mice; groups 1, 2, 3, and 5",all tissues examined were considered to be within the normal range
same,WBC differentials,"CD-1 mice; peripheral blood, granulocyte and mononuclear cells",within normal limits
same,"organ systems (weights, histopathological assessments)",CD-1 mice; vs sham-injected controls,within normal weight limits
same,"Lymphocyte Blastogenesis, Con A",splenic lymphocytes [1]; 100 mg/kg IV (group 5),17292 ± 3202
same,"Lymphocyte Blastogenesis, PHA",splenic lymphocytes [1]; 100 mg/kg IV (group 5),8513 ± 3950
same,"Lymphocyte Blastogenesis, PWM",splenic lymphocytes [1]; 100 mg/kg IV (group 5),7125 ± 3899
same,"Lymphocyte Blastogenesis, RPMI",splenic lymphocytes [1]; 100 mg/kg IV (group 5),234 ± 116
same,"Lymphocyte Blastogenesis, Con A",splenic lymphocytes [1]; 100 mg/kg P.O. (group 4),18948 ± 3543
same,"Lymphocyte Blastogenesis, PHA",splenic lymphocytes [1]; 100 mg/kg P.O. (group 4),13432 ± 4075
same,"Lymphocyte Blastogenesis, PWM",splenic lymphocytes [1]; 100 mg/kg P.O. (group 4),6733 ± 1181
same,"Lymphocyte Blastogenesis, RPMI",splenic lymphocytes [1]; 100 mg/kg P.O. (group 4),307 ± 52
same,"Lymphocyte Blastogenesis, Con A",splenic lymphocytes [1]; 1000 mg/kg IV (group 3),14471 ± 2913
same,"Lymphocyte Blastogenesis, PHA",splenic lymphocytes [1]; 1000 mg/kg IV (group 3),4473 ± 1181
same,"Lymphocyte Blastogenesis, PWM",splenic lymphocytes [1]; 1000 mg/kg IV (group 3),4402 ± 3641
same,"Lymphocyte Blastogenesis, RPMI",splenic lymphocytes [1]; 1000 mg/kg IV (group 3),203 ± 122
same,"Lymphocyte Blastogenesis, Con A",splenic lymphocytes [1]; 1000 mg/kg P.O. (group 2),15151 ± 627
same,"Lymphocyte Blastogenesis, PHA",splenic lymphocytes [1]; 1000 mg/kg P.O. (group 2),8189 ± 1602
same,"Lymphocyte Blastogenesis, PWM",splenic lymphocytes [1]; 1000 mg/kg P.O. (group 2),4896 ± 1547
same,"Lymphocyte Blastogenesis, RPMI",splenic lymphocytes [1]; 1000 mg/kg P.O. (group 2),244 ± 97
same,"LSA response to PHA, CON-A and PWM lectins",splenic lymphocytes [1]; treated vs sham-injected controls,comparable
same,"Lymphocyte Blastogenesis, PHA",splenic lymphocytes [2],5849 ± 1227 Counts per minute
same,"Lymphocyte Blastogenesis, RPMI",splenic lymphocytes [2],83 ± 35 Counts per minute
